# Source: PubChem BioAssay (NCI)
# Values joined by “and” are separate entries in the source; they are usually repeats but may differ in a detail not shown here. Equal entries are not always repeated.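 Compound exposure: 48 hours, 5 concentrations, 96-well plates. GI50: concentration for 50% inhibition of growth. TGI marks complete inhibition of growth.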
# How the values were obtained:
# Test in all cases: growth of human tumour cells (NCI), 48 h
# SF-539 CNS = test system: SF-539 CNS
# HOP-92 NSCLC = test system: HOP-92 NSCLC
# OVCAR-3 ovarian = test system: OVCAR-3 ovarian
# COLO 205 colon = test system: COLO 205 colon
# U251 CNS = test system: U251 CNS
# NCI-H522 lung = test system: NCI-H522 lung
# M14 melanoma = test system: M14 melanoma
# RPMI-8226 leukemia = test system: RPMI-8226 leukemia
# SF-268 CNS = test system: SF-268 CNS
# SK-MEL-28 melanoma = test system: SK-MEL-28 melanoma
Compound,GI50 (SF-539 CNS) [µM],TGI (SF-539 CNS),GI50 (HOP-92 NSCLC) [µM],TGI (HOP-92 NSCLC) [µM],GI50 (OVCAR-3 ovarian) [µM],TGI (OVCAR-3 ovarian) [µM],GI50 (COLO 205 colon) [µM],TGI (COLO 205 colon) [µM],GI50 (U251 CNS) [µM],TGI (U251 CNS) [µM],GI50 (NCI-H522 lung) [µM],TGI (NCI-H522 lung),GI50 (M14 melanoma) [µM],TGI (M14 melanoma) [µM],GI50 (RPMI-8226 leukemia) [µM],TGI (RPMI-8226 leukemia),GI50 (SF-268 CNS) [µM],TGI (SF-268 CNS),GI50 (SK-MEL-28 melanoma) [µM],TGI (SK-MEL-28 melanoma) [µM]
CCN(CC)CC(C)Nc1ccc(C)c2sc3ccccc3c(=O)c12 (configuration not stated),3.2,12.7 µM,0.896,8.36,6.33,19.2,1.68,3.77,3.43,16.3,10.9,28.7 µM,1.62,3.2,2.32,6.81 µM,6.24,18.4 µM,1.73,3.41
Cc1ccc(S(=O)(=O)ON/N=C2/C3OC3[C@@H]3CCCC[C@H]23)cc1 (some centres not stated),–,> 100 µM,–,> 100,–,> 100,–,> 100,–,> 100,–,> 100 µM,–,> 100,–,> 100 µM,–,> 100 µM,–,> 100
CC1(C)C(=O)/C(=C\c2ccco2)C[C@]2(C)[C@H]3CC=C4[C@@H]5C[C@](C)(C(=O)O)CC[C@]5(C)CC[C@@]4(C)[C@]3(C)CC[C@@H]12,13.2,27.3 µM,3.83,17,10.9,26.1,9.31,25.5,7.92,24.8,9.26,25.6 µM,13.3,35.1,4.2,47.9 µM,12.1,28.2 µM,15.1,31.1
CCOC(=O)/C(C1=CC(=O)C(=O)c2ccccc21)=C(/C)NCc1ccccc1,1.06,2.65 µM,1.4,3.52,0.218,0.935,2.01,4.54,0.606,–,1.22,–,1.71,3.17,0.184,0.432 µM,1.64,3.43 µM,3.02,7.32
O=S(=O)(O)c1ccc2cc(N=Nc3cc(S(=O)(=O)O)c4cccnc4c3O)ccc2c1,–,> 100 µM,–,> 100,–,> 100,–,> 100,–,> 100,–,> 100 µM,–,> 100,–,> 100 µM,–,> 100 µM,–,> 100
COc1ccc(N=Cc2ccc(N(CCC#N)CCC#N)cc2)cc1,–,78.7 µM,–,> 100,–,> 100,–,> 100,–,> 100,–,> 100 µM,–,> 100,–,> 100 µM,–,> 100 µM,–,> 100
O=C(O)c1[nH]c(C(=O)O)c(CC(F)(F)C(F)(F)C(F)(F)F)c1CC(F)(F)C(F)(F)C(F)(F)F,–,> 100 µM,–,> 100,–,> 100,–,> 100,–,> 100,–,> 100 µM,–,> 100,–,> 100 µM,–,> 100 µM,–,> 100
O=C(/C=C/c1ccc([N+](=O)[O-])o1)NNC(=O)c1cc2ccccc2cc1O,2.06,7.52 µM,2.75,> 100,0.967,> 21,1.92,6.54,2.17,> 26.1,0.565,2.03 µM,0.738,2.29,2.3,> 100 µM,1.29,> 100 µM,0.596,2.21
[Cl][Sn]([c]1ccccc1)[c]1ccccc1,9.43,22.6 µM,3.61,8.69,11.4,24.1,7.45,38.2,10.3,23.2,0.352,1.89 µM,8.24,24.4,2.09,6.14 µM,4.1,16.1 µM,1.58,3.62
CCCCS(=N)(=O)CC[C@H](N)C(=O)O (some centres not stated),> 10000,5000 µM and > 10000 µM,945,–,> 10000,> 10000,> 10000,> 10000,> 10000,> 10000,> 20.5,351 µM and 51.9 µM,> 5620,> 5620,> 8560,4730 µM and > 10000 µM,> 10000,5000 µM and > 10000 µM,> 10000,> 10000
Cc1c(C(=O)CC(=O)C(=O)NC2C3CC4CC(C3)CC2C4)[n+](=O)c2ccccc2n1[O-] (configuration not stated),–,> 100 µM,–,> 100,–,85.1,–,> 100,–,> 100,–,> 100 µM,–,> 100,–,> 100 µM,–,> 100 µM,–,> 100
Cc1ccc2c(c1)sc(-c1ccc(N(C)C)cc1)[n+]2C,2.56,14.1 µM,0.719,5.36,0.685,15,0.368,1.44,0.467,> 76,1.45,> 100 µM,1.79,> 38,0.13,5.15 µM,2.44,24.9 µM,3.3,20.9
OCCCNCc1ccccn1,–,> 100 µM,–,> 100,–,> 100,–,> 100,–,> 100,–,> 100 µM,–,> 100,–,> 100 µM,–,> 100 µM,–,> 100
c1c[nH]c(Cc2ncc(Cc3cnc[nH]3)[nH]2)n1,–,> 100 µM,–,> 100,–,> 100,–,> 100,–,> 100,–,> 100 µM,–,36.7,–,> 100 µM,–,> 100 µM,–,> 100
COC1C(=O)CCC2(CO2)C1(O)C1(C)OC1CCC(C)C (configuration not stated),–,> 100 µM,–,> 100,–,> 100,–,> 100,–,> 100,–,> 100 µM,–,> 100,–,> 100 µM,–,> 100 µM,–,> 100
C=C(CNCCO)[C@@H]1CC[C@]2(CO)CC[C@]3(C)[C@H](CC[C@@H]4[C@@]5(C)CCC(NCCc6ccc(O)cc6)C(C)(C)[C@@H]5CC[C@]43C)[C@@H]12 (some centres not stated),1.52,2.91 µM,0.822,2.29,1.82,3.73,0.194,0.427,0.278,0.717,1.64,3.13 µM,0.187,0.398,1.02,3.13 µM,1.56,3.22 µM,1.6,3.1
CCc1cccc(C)c1NC(=O)CC1Sc2ccccc2NC1=O (configuration not stated),–,> 100 µM,–,99.7,–,> 100,–,> 100,–,> 100,–,61.5 µM,–,> 100,–,> 100 µM,–,> 100 µM,–,> 100
O=C1C=C(c2cc(Br)c(O)c(Br)c2)/C(=C/c2cc(Br)c(O)c(Br)c2)O1,24,> 75 µM,15.4,> 75,21,71,29.8,> 75,26.4,> 75,30.4,> 75 µM,17.8,> 75,22.2,66.7 µM,30.5,> 75 µM,34.8,> 75
